According to article PMC7565406, “BMS-599626, a Highly Selective Pan-HER Kinase Inhibitor, Antagonizes ABCG2-Mediated Drug Resistance” (Cancers, 2020):

Legend:
ABCG2 [1] = molecular target: T1, ABCG2 (Homo sapiens, UniProt Q9UNQ0); assay: vanadate-sensitive ATPase assay in ABCG2 membrane vesicles; supported by [3H]-mitoxantrone accumulation and efflux in cells; format: biochemical; design: membrane vesicles prepared from ABCG2 expressing High-five insect cells
T1 sequence (Q9UNQ0 1-655): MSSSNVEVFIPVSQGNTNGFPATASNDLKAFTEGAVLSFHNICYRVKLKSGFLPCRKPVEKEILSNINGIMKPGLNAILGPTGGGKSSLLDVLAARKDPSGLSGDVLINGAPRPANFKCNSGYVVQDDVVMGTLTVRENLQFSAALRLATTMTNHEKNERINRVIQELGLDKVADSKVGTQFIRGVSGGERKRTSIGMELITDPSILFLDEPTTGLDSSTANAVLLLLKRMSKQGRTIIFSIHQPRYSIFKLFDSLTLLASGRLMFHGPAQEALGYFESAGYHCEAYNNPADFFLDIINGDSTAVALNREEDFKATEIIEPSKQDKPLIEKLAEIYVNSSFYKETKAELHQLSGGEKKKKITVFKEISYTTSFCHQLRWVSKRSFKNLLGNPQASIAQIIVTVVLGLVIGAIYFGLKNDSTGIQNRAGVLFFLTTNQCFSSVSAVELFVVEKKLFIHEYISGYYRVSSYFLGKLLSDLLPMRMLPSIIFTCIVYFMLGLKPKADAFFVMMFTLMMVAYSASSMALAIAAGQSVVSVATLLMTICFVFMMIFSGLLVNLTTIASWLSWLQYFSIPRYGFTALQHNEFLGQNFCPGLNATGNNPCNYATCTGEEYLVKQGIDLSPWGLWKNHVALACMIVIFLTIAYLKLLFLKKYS

ABCG2 [2] = molecular target: T1, ABCG2; assay: radiolabelled drug efflux in ABCG2-overexpressing versus parental cells; format: cell-based; design: wild-type ABCG2 (R482) in HEK293 cells; NCI-H460/MX20 cells

## Cc1c(NC(=O)OC[C@@H]2COCCN2)cn2ncnc(Nc3ccc4c(cnn4Cc4cccc(F)c4)c3)c12 [BMS-599626, [4-[[1-(3-fluorophenyl)methyl]-1H-indazol5-ylamino]-5-methylpyrrolo [2,1-f][1,2,4]triazin6-yl]carbamic acid, (3S)-3-morpholinylmethyl ester]
ABCG2 [1]
  vanadate-sensitive ATPase assay in ABCG2 membrane vesicles; supported by [3H]-mi: 7.6 fold inhibition of ATPase activity at 3 µM

## O=C1c2c(O)ccc(O)c2C(=O)c2c(NCCNCCO)ccc(NCCNCCO)c21 [mitoxantrone]
ABCG2 [2]
  radiolabelled drug efflux in ABCG2-overexpressing versus parental cells: ABCG2-overexpressing cell lines showed a significantly higher efflux activity compared to parental cell lines
